Key:
Format in all cases: cell-based, human
normal hepatocytes = assay: Effect of copper ion accumulation on cell viability (CCK-8); settings: 48 hours
Method: (§1) 3.4 Effect of copper ion accumulation on cell viability: The induced cells were digested and evenly inoculated in a 96-well plate, with about 3×10^4 cells per well, and edge wells were filled with sterile PBS. After the cells were adhered to the wall, a copper sulfate or copper chloride solution in different concentrations (0 mM, 0.5 mM, 1 mM, and 1.5 mM) were added, and 6 replicate wells were set in each group. The wells without cells were set as blank wells. After incubation at 37°C for 48 hours (fresh culture medium was replaced every 22 hours to 26 hours), the original culture medium was discarded, and the cells were washed three times with DPBS. Fresh culture medium (100 µL per well) was added, and a 10 µL CCK-8 reaction solution was added to each well, followed by incubating at 37 °C in the dark for 4 hours. After the incubation, the absorbance at 450 nm was detected using a microplate reader.

[1] = tested on: hepatolenticular degeneration hepatocytes; assay: as above; settings: 48 hours
Method: as §1

[2] = tested on: ATP7B protein in normal hepatocyte; assay: Detection of ATP7B protein expression (Western blotting); settings: after incubation with 100 µM to 300 µM copper sulfate or copper chloride
Method: (§2) 3.2 Detection of ATP7B protein expression: Cells on the last day of induction were collected, and ATP7B protein expression levels in the hepatocytes before and after incubation with 100 µM to 300 µM of copper sulfate or copper chloride were detected by Western blotting method, with GAPDH protein as the internal reference. The induced cells were digested and collected in a 1.5 mL EP tube. An appropriate amount of protein lysis buffer was added depending on the cell solution volume (adding 200 µL RIPA lysis buffer for 1×10^6 cells). The cell solution was pipetted up and down to mix, and the cells were lysed in an ice bath with an ultrasonic cell disruptor for 15 minutes, then centrifuged at 13000 ×g and 4°C for 10 minutes. The supernatant was transferred to a new EP tube, and the protein concentration was detected using a BCA protein quantification kit. Polyacrylamide gel for SDS-PAGE was prepared, including preparing an 8% separating gel and a stacking gel. After the stacking gel was solidified, the comb was carefully pulled out. After a 40 µg sample and a 5 µL protein marker were loaded, the electrophoresis started at a 110 V constant voltage. After the Loading Buffer ran out of the separating gel, the electrophoresis stopped. […]

[3] = tested on: ATP7B protein in hepatolenticular degeneration hepatocyte; assay: as above; settings: after incubation with 100 µM to 300 µM copper sulfate or copper chloride
Method: as §2

[4] = tested on: ATP7B gene in hepatolenticular degeneration hepatocytes; assay: Detection of ATP7B gene expression (qPCR); settings: after incubation with 100 µM to 300 µM copper sulfate or copper chloride
Method: (§3) 3.1 Detection of ATP7B gene expression: Cells on the last day of induction were collected, and ATP7B gene expression levels in the hepatocytes before and after incubation with 100 µM to 300 µM of copper sulfate or copper chloride were detected by qPCR method, with GAPDH gene as the internal reference. Primers were used for validation. The qPCR method was performed as follows: 95°C for 5 minutes; 45 cycles (94°C for 40 seconds, 54°C to 58°C for 10 seconds, 72°C for 10 seconds); and 72°C extension for 5 minutes.

[5] = tested on: ATP7B gene in normal hepatocytes; assay: Detection of ATP7B gene expression (qPCR); settings: after incubation with 100 µM to 300 µM copper sulfate or copper chloride
Method: as §3

Structure (SMILES): [Cu+2] [copper ions]
- cell viability (normal hepatocytes; 0.5 mM copper ions): 95.33%
- cell viability (normal hepatocytes; 1 mM copper ions): 83.78%
- cell viability (normal hepatocytes; 1.5 mM copper ions): 73.53%
- cell viability ([1]; 0.5 mM copper ions): 93.25%
- cell viability ([1]; 1 mM copper ions): 67.49%
- cell viability ([1]; 1.5 mM copper ions): 34.8%
- expression level of the ATP7B protein [2]: significantly increased
- expression level of the ATP7B protein [3]: still expresses a low level of the ATP7B protein
- expression level of the ATP7B gene [4]: not upregulated significantly
- expression level of the ATP7B gene [5]: significantly upregulated

Reference: EP4610348A1, “HEPATOLENTICULAR DEGENERATION CELL, PREPARATION METHOD THEREFOR, AND EVALUATION METHOD THEREFOR” (GUANGXIU-GAOXIN LIFE SCIENCES CO., LTD. HUNAN, priority 2022, dated 2024)
